The source of these data is patent US8541449B2, “Substituted isoquinolines and isoquinolinones as Rho kinase inhibitors” (Sanofi, priority 2008, dated 2013).

In general, IC50 refers to the midpoint of a concentration-inhibition curve.

Holding throughout (assay type): biochemical
Experiment [1] has as its target T1, human recombinant ROCK II (Homo sapiens, UniProt O75116).
T1 construct: N-terminal His6-tagged recombinant human ROCK-II residues 11-552; His6 (N); purchased Millipore GmbH, Schwalbach, Germany
Kind of experiment: Determination of Rho kinase inhibition (Caliper peptide phosphorylation assay). Conditions: 60 min at 32° C., negative decadal logarithm of the IC50. As for the experimental part: Determination of Rho Kinase Inhibition
To measure Rho-kinase inhibition, IC50 values were determined according to the following protocol:
Active human recombinant ROCK II (N-terminal His6-tagged recombinant human ROCK-II residues 11-552) was purchased from Millipore GmbH, Schwalbach, Germany. The peptide substrate, Fluorescein-[…]-COOH, was obtained from JPT Peptide Technologies, Berlin, Germany. Adenosine-5′-triphosphate (ATP), bovine serum albumine (BSA), dimethylsulphoxide (DMSO), 4-(2-Hydroxyethyl)piperazine-1-ethanesulfonic acid (Hepes), Brij-35, dithiothreitol (DTT) and Pluronic F-68 were purchased from Sigma-Aldrich, Munich, Germany. Tris(hydroxymethyl)-aminomethane (Tris), magnesium chloride, NaOH, 1M HCl and EDTA were obtained from Merck Biosciences, Darmstadt, Germany. “Complete” protease inhibitor was from Roche Diagnostics, Mannheim, Germany.
(§1) Test compounds were diluted to the appropriate concentrations in buffer 1 (25 mM Tris-HCl, pH 7.4, 5 mM MgCl2, 2 mM DTT, 0.02% (w/v) BSA, 0.01% Pluronic F-68 and 3% DMSO). The ROCK II enzyme was diluted to a concentration of 100 ng/mL in buffer 2 (25 mM Tris-HCl, pH 7.4, 5 mM MgCl2, 2 mM DTT and 0.02% (w/v) BSA). The peptide substrate and ATP were diluted to concentrations of 3 μM and 120 μM, respectively, in the buffer 2. Two μl of the compound solution were mixed with 2 μl of the diluted enzyme in a 384-well small volume microtiter plate (Greiner, Bio-One, Frickenhausen, Germany), and the kinase reaction was initiated by addition of 2 μl of the solution containing peptide substrate and ATP. After 60 min incubation at 32° C., the reaction was stopped by addition of 20 μl of a solution containing 100 mM Hepes-NaOH, pH 7.4, 0.015% (v/v) Brij-35, 45 mM EDTA and 0.227% chip coating reagent 1 (Caliper Lifescience Inc, Hopkinton, Mass.). Phosphorylation of the substrate peptide was then detected on a Caliper 3000 instrument essentially as described by Pommereau et al (J. Biomol. Screening 9(5), 409-416, 2004). Separation conditions were as follows: Pressure −1.3 psi, upstream voltage −1562 V, downstream voltage −500 V, sample sip time 200 ms. Positive controls (buffer 1 instead of compound) and negative controls (buffer 1 instead of compound and buffer 2 instead of ROCK II) were run in parallel on each plate.
The following products/compounds were tested in said assay by using the respective form (salt or free base) obtained as in the examples described above and the following activities were measured

Experiment [2] has as its target T2, recombinant human PKG1-beta (Homo sapiens, UniProt Q13976).
T2 construct: Active recombinant human PKG1-beta (full-length, with N-terminal His-tag); His-tag (N); purchased Millipore GmbH, Schwalbach, Germany
T2 sequence (Q13976 1-686 isoform Q13976-2): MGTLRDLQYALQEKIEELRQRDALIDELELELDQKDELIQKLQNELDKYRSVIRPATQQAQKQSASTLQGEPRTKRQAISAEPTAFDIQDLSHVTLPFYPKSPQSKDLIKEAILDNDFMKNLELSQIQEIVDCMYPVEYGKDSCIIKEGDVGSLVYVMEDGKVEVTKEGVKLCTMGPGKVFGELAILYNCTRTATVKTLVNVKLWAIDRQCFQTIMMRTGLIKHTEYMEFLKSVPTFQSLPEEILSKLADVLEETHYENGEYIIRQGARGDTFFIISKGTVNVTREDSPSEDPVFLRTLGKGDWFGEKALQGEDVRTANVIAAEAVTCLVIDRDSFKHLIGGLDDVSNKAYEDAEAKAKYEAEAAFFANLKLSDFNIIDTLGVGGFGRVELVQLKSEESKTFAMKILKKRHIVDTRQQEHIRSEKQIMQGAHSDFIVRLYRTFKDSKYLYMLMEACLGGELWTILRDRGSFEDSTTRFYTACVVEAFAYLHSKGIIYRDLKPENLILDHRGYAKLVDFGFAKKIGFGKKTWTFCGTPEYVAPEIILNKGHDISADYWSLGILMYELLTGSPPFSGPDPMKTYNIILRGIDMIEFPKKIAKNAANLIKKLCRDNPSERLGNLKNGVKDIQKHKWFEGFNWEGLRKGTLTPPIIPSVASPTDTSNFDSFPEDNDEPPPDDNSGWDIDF
The experiment can be described thus: Determination of Protein Kinase G inhibition (Caliper peptide phosphorylation assay). As to conditions: recombinant human PKG1-beta versus ROCK II. As to the method: (§2) Determination of Protein Kinase A and Protein Kinase G Inhibition
(§3) To measure PKA and PKG1-beta inhibition, IC50 values were determined according to the following protocol:
(§4) Active recombinant human PKG1-beta (full-length, with N-terminal His-tag) was purchased from Millipore GmbH, Schwalbach, Germany. Active recombinant human PKA (residues 1-351, N-terminal His-tag) was obtained from Invitrogen, Karlsruhe, Germany. The peptide substrate, Fluorescein-[…]-COOH, was obtained from JPT Peptide Technologies, Berlin, Germany. Adenosine-5′-triphosphate (ATP), bovine serum albumine (BSA), dimethylsulphoxide (DMSO), 4-(2-Hydroxyethyl)piperazine-1-ethanesulfonic acid (Hepes), Brij-35, dithiothreitol (DTT) and Pluronic F-68 were purchased from Sigma-Aldrich, Munich, Germany. Tris(hydroxymethyl)-aminomethane (Tris), magnesium chloride, NaOH, 1M HCl and EDTA were obtained from Merck Biosciences, Darmstadt, Germany. “Complete” protease inhibitor was from Roche Diagnostics, Mannheim, Germany.
as §1, with “PKG1-beta and PKA were” for “The ROCK II enzyme was”, “concentrations” for “a concentration”, “150 ng/ml and 30 ng/ml, respectively,” for “100 ng/mL”, “2.” for “2 (25 mM Tris-HCl, pH 7.4, 5 mM MgCl2, 2 mM DTT and 0.02% (w/v) BSA).”, “kinase solution)” for “ROCK II)”, “plate. The following products/compounds were tested in said assay by using the respective form (salt or free base) obtained as in the examples described above and the following activities were measured.” for “plate.”

A further experiment addresses T3, recombinant human PKA (Homo sapiens, UniProt P17612).
T3 construct: Active recombinant human PKA (residues 1-351, N-terminal His-tag); His-tag (N); purchased Invitrogen, Karlsruhe, Germany
The experiment can be described thus: Determination of Protein Kinase A inhibition (Caliper peptide phosphorylation assay). Conditions: recombinant human PKA versus ROCK II. As for the experimental part: as §2, §3, §4
as §1, with “PKG1-beta and PKA were” for “The ROCK II enzyme was”, “concentrations” for “a concentration”, “150 ng/ml and 30 ng/ml, respectively,” for “100 ng/mL”, “2.” for “2 (25 mM Tris-HCl, pH 7.4, 5 mM MgCl2, 2 mM DTT and 0.02% (w/v) BSA).”, “kinase solution)” for “ROCK II)”, “plate. The following products/compounds were tested in said assay by using the respective form (salt or free base) obtained as in the examples described above and the following activities were measured.” for “plate.”

T1 sequence (O75116 11-552): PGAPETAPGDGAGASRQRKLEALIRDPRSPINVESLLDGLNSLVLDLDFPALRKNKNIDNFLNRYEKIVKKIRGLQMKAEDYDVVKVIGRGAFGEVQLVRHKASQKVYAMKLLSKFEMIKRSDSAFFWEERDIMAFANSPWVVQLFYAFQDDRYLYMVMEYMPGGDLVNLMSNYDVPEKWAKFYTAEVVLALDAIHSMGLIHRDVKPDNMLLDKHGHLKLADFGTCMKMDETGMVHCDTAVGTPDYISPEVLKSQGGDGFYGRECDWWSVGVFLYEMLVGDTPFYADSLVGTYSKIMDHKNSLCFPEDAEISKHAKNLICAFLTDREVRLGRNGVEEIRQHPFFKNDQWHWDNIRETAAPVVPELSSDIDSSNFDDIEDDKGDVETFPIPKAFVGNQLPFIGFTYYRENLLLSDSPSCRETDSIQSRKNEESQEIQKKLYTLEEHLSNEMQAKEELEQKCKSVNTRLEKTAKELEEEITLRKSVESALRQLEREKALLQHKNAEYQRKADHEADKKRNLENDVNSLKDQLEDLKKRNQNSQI

With `COc1ccc(C(N)[C@H]2CC[C@@H](Oc3cc4cc[nH]c(=O)c4cc3Cl)CC2)cc1` (single isomer, unassigned) [Example 35, 6-{4-[Amino-(4-methoxy-phenyl)-methyl]-cyclohexyloxy}-7-chloro-2H-isoquinolin-1-one], in experiment [1], the IC50 is at most 10 nM. The “Selectivity against PKG” value in experiment [2] is given as over 100. On recombinant human PKA, the “Selectivity against PKA” value was over 1000.
Turning to `COc1ccc(C(N)[C@H]2CC[C@@H](Oc3cc4cc[nH]c(=O)c4cc3Cl)CC2)cc1` (single isomer, unassigned) [Example 36, 6-{4-[Amino-(4-methoxy-phenyl)-methyl]-cyclohexyloxy}-7-chloro-2H-isoquinolin-1-one], in experiment [1], the IC50 was 10 to 100 nM. For the same compound, the “Selectivity against PKG” value in experiment [2] was over 300. Also, the “Selectivity against PKA” value on recombinant human PKA is on record as over 300.
On to `NC(c1ccc(F)cc1)C1CCC(Oc2cc3cc[nH]c(=O)c3cc2Cl)CC1` (single isomer, unassigned) [Example 37, 6-{4-[Amino-(4-fluoro-phenyl)-methyl]-cyclohexyloxy}-7-chloro-2H-isoquinolin-1-one], for which the IC50 in experiment [1] was at most 10 nM. In experiment [2], the “Selectivity against PKG” value is over 300. Further, at recombinant human PKA, the “Selectivity against PKA” value is given as over 1000.
For the compound `Cc1ccc(C(N)C2CCC(Oc3cc4cc[nH]c(=O)c4cc3Cl)CC2)cc1` (single isomer, unassigned) [Example 38, 6-[4-(Amino-p-tolyl-methyl)-cyclohexyloxy]-7-chloro-2H-isoquinolin-1-one], the IC50 in experiment [1] was at most 10 nM. For the same compound, the “Selectivity against PKG” value in experiment [2] was over 300. Also, the “Selectivity against PKA” value at recombinant human PKA is over 1000.
On to `Cc1ccc(C(N)C2CCC(Oc3cc4cc[nH]c(=O)c4cc3Cl)CC2)cc1` (single isomer, unassigned) [Example 39, 6-[4-(Amino-p-tolyl-methyl)-cyclohexyloxy]-7-chloro-2H-isoquinolin-1-one], for which the IC50 in experiment [1] is 10 to 100 nM. The “Selectivity against PKG” value in experiment [2] was over 100. The “Selectivity against PKA” value at recombinant human PKA was over 100.
As to `NC(c1ccccc1)C1(c2ccccc2)CCC(Oc2cc3cc[nH]c(=O)c3cc2Cl)CC1` (single isomer, unassigned) [Example 41], the IC50 in experiment [1] is 100 to 1000 nM. The “Selectivity against PKG” value in experiment [2] is given as over 10. Further, the “Selectivity against PKA” value on recombinant human PKA was over 10.
On to `NC(c1ccccc1)C1(c2ccccc2)CCC(Oc2cc3cc[nH]c(=O)c3cc2Cl)CC1` (single isomer, unassigned) [Example 42], for which, in experiment [1], the IC50 is 10 to 100 nM. In addition, the “Selectivity against PKG” value in experiment [2] is over 300. The “Selectivity against PKA” value at recombinant human PKA was over 300.
Regarding `CC(N)(c1ccc(F)cc1)C1CCC(Oc2cc3cc[nH]c(=O)c3cc2Cl)CC1` (single isomer, unassigned) [Example 116, 6-{4-[1-Amino-1-(4-fluoro-phenyl)-ethyl]-cyclohexyloxy}-7-chloro-2H-isoquinolin-1-one], in experiment [1], the IC50 was 10 to 100 nM. In experiment [2], the “Selectivity against PKG” value is listed as over 10. Also, the “Selectivity against PKA” value on recombinant human PKA is over 100.
The matching figures for `CC(N)(C1CCC(Oc2cc3cc[nH]c(=O)c3cc2Cl)CC1)C1CC1` (single isomer, unassigned) [Example 120, 6-{4-[1-Amino-1-cyclopropyl-ethyl]-cyclohexyloxy}-7-chloro-2H-isoquinolin-1-one]: 100 to 1000 nM, over 10 and over 100.
Turning to `CCCC(C)(N)C1CCC(Oc2cc3cc[nH]c(=O)c3cc2Cl)CC1` (single isomer, unassigned) [Example 121, 6-{4-[1-Amino-1-n-propyl-ethyl]-cyclohexyloxy}-7-chloro-2H-isoquinolin-1-one], the IC50 in experiment [1] was 10 to 100 nM. In addition, the “Selectivity against PKG” value in experiment [2] was over 10. Further, at recombinant human PKA, the “Selectivity against PKA” value is given as over 100.
In the case of `CCC(N)(CC)C1CCC(Oc2cc3cc[nH]c(=O)c3cc2Cl)CC1` (single isomer, unassigned) [Example 122, 6-{-4-[1-Amino-1-ethyl-propyl]-cyclohexyloxy}-7-chloro-2H-isoquinolin-1-one], the IC50 in experiment [1] was 10 to 100 nM. Moreover, the “Selectivity against PKG” value in experiment [2] is given as over 10. For the same compound, the “Selectivity against PKA” value at recombinant human PKA was over 300.
The matching figures for `CC(N)(c1ccccc1)C1CCC(Oc2cc3cc[nH]c(=O)c3cc2Cl)CC1` (single isomer, unassigned) [Example 123, 6-{4-[1-Amino-1-phenyl-ethyl]-cyclohexyloxy}-7-chloro-2H-isoquinolin-1-one]: 10 to 100 nM, over 10 and over 100.
`COc1ccc(C(C)(N)C2CCC(Oc3cc4cc[nH]c(=O)c4cc3Cl)CC2)cc1` (centres unmarked) [Example 117, 6-{4-[1-Amino-1-(4-methoxy-phenyl)-ethyl]-cyclohexyloxy}-7-chloro-2H-isoquinolin-1-one]: the “Selectivity against PKG” value in experiment [2] is given as over 10. In addition, the “Selectivity against PKA” value at recombinant human PKA is on record as over 300.
